In patent publication US12098352B2, “Stem cell-based lung-on-chip models” (EMULATE, INC., priority 2018, dated 2024):

What was measured:
[1] = test system: Alveolus-Chip epithelium/endothelium barrier; assay: Barrier function assay (fluorescent dextran / Lucifer Yellow leakage) in Open-Top Alveolus-Chip; format: cell-based, human
Source text: We studied interaction between different chip compartments by perturbating the system with biological and chemical stressors such as LPS, and H2O2 which are known to induce a reversible disruption of the cellular monolayer after acute administration both in vivo and in vitro. […] The presence of a strong barrier is indirectly confirmed by the presence of continuous pattern of E-cad and VE-cad in the monolayer of Alveolar epithelial and endothelial cell, respectively.
Given the limited availability of in vitro models that can closely mimic human alveolar epithelium function and/or its disease states, we explored whether a microfluidic Alveolus-Chip lined with the primary alveolar epithelial cells on an artificial lung stroma with embedded primary lung fibroblasts and pulmonary microvascular endothelial cells would model a lung injury state. To test this, we exposed the Alveolus-Chips to an acute damage generated by exposure to H2O2 under continuous infusion through the epithelium top channel, similarly to as it is […] administered in mice.
Air-Liquid interface was replaced by phenol red free MEM (GIBCO: 51200-038) and medium in the bottom fluidical spiraled channel substituted by one containing 1 mg/ml Lucifer Yellow CH, Lithium Salt (ThermoFisher: L453) or 0.1 mg/ml Dextran, Fluorescein, 3000 MW, Anionic, Lysine Fixable (ThermoFisher: D3306). Leakage of the fluorescent probe from the lumen of the spiraled channel to the epithelial compartment was collected from the outlet reservoirs after indicated hours of perfusion. The fluorescence intensity was measured with a 96-well fluorimeter at excitation/emission indicated by the manufacturer.

[2] = test system: cellular monolayer barrier; assay: Barrier function in static transwell; format: cell-based; settings: doses up to 100 ng/ml LPS, 10 mM H2O2
IL-6, IL-8 and MCP-1 = assay: Cytokine secretion in chip medium effluent (ELISA); format: cell-based, human
Source text: We studied interaction between different chip compartments by perturbating the system with biological and chemical stressors such as LPS, and H2O2 which are known to induce a reversible disruption of the cellular monolayer after acute administration both in vivo and in vitro. […] To assess changes in the barrier function following the exposure to these insults, we added a fluorescent dye (e.g. […]—Dextran-FITC) to the endothelial compartment, which is under control condition confirmed that the endothelium and epithelium form a barrier to the dies. The presence of a strong barrier is also indirectly confirmed by the presence of continuous pattern of E-cad and VE-cad in the monolayer of Alveolar epithelial and endothelial cell, respectively. […] We also decoupled the effect of single biological component to the inflammatory response by selectively removing them from the system in an integrated matrix. […] In fact, the recorded value of IL-6 and IL-8 is not the algebraic sum of the concentration of the factors released by the single cellular components. […]
The amount of Surfactant B and C was collected from chip epithelial cell surface by PBS washing and measured by Human SFTPB/Surfactant Protein B ELISA Kit (Sandwich ELISA)—LS-F4439 and Human SFTPC/Surfactant Protein C ELISA Kit (Sandwich ELISA)—LS-F12438 (LifeSpanBioScience) following the manufacturer's protocol. The color reaction was measured at 450 nm with a photometer (specification). […] Similarly, the presence of IL-6, IL-8 and MPC in medium samples was detected by Human TLR-induced Cytokines II: Microbial-induced Multi-Analyte ELISArray Kit (MEH-008A) (Qiogen) following the manufacturer's protocol. The color reaction was measured at 450 nm with a photometer (specification). […]

[3] = test system: epithelium-endothelium co-culture perfused with human whole blood; settings: LPS treatment of the alveolar lumen of epithelium-endothelium co-culture; cited from earlier work

Substance: Lipopolysaccharide [LPS]
- effect of stressor on barrier function ([1]; LPS 10 ng/ml and/or H2O2 10 mM): causes barrier breakdown and disruption of intracellular junction
- reversibility of barrier breakdown after removal of stressor ([1]; additional 2 days in fresh medium): barrier breakdown in our chip was reversable
- loss of barrier function [2]: dose dependent loss of barrier function
- release of IL-6, IL-8 and MCP-1 in medium effluent (IL-6, IL-8 and MCP-1; 24 hours of exposure): increases of lung specific cytokines
- IL-6, IL-8 and MCP-1 secretion, fold increase in relation to untreated controls (IL-6, IL-8 and MCP-1; LPS stimulation, co-presence of epithelial cells): 40-90 fold
- thrombotic events [3]: triggered thrombotic events
